This passage reports T/C results from PubChem BioAssay AID328 (DTP/NCI, 2004).

Where “and” joins values, the source holds several entries; their conditions need not be identical. Equal values may be shown once. Toxic doses and inconclusive results are not listed.

The test relates to BDF1 mice, P388 leukemia ip, median survival T/C. The test can be described thus: NCI In Vivo Anticancer Drug Screen. Data for tumor model P388 Leukemia (intraperitoneal) in B6D2F1 (BDF1) mice. Conditions: endpoint: median survival time, higher = longer survival. The procedure, abridged:
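Mice carrying the transplantable tumour receive compound or vehicle. Survival is followed in each arm, and the treated measure is divided by the vehicle measure.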

The mark [1] stands for this setting: dose: 12.5 mg/kg/injection, schedule: Q01DX009 (ip), vehicle: saline.
[2] abbreviates: dose: 25.0 mg/kg/injection, schedule: Q01DX009 (ip), vehicle: saline.
The mark [3] stands for this setting: dose: 50.0 mg/kg/injection, schedule: Q01DX009 (ip), vehicle: saline.
The mark [4] stands for this setting: dose: 50.0 mg/kg/injection, schedule: Q01DX009 (ip), vehicle: saline with Tween-80.
Setting [5] is: dose: 100.0 mg/kg/injection, schedule: Q01DX009 (ip), vehicle: saline with Tween-80.
Setting [6] is: dose: 12.5 mg/kg/injection, schedule: Q04DX003 (ip), vehicle: saline.
Setting [7] is: dose: 25.0 mg/kg/injection, schedule: Q04DX003 (ip), vehicle: saline.
[8] abbreviates: dose: 50.0 mg/kg/injection, schedule: Q04DX003 (ip), vehicle: saline.
The mark [9] stands for this setting: dose: 100.0 mg/kg/injection, schedule: Q04DX003 (ip), vehicle: saline with Tween-80.
The mark [10] stands for this setting: dose: 200.0 mg/kg/injection, schedule: Q04DX003 (ip), vehicle: saline with Tween-80.
[11] abbreviates: dose: 12.5 mg/kg/injection, schedule: Q01DX009 (ip), vehicle: Klucel (hydroxypropylcellulose) (HPC).
Where [12] appears, read: dose: 25.0 mg/kg/injection, schedule: Q01DX009 (ip), vehicle: Klucel (hydroxypropylcellulose) (HPC).
[13] abbreviates: dose: 25.0 mg/kg/injection, schedule: Q01DX009 (ip), vehicle: saline with Tween-80.
[14] abbreviates: dose: 1.56 mg/kg/injection, schedule: Q01DX009 (ip), vehicle: Klucel (hydroxypropylcellulose) (HPC).
The mark [15] stands for this setting: dose: 3.13 mg/kg/injection, schedule: Q01DX009 (ip), vehicle: Klucel (hydroxypropylcellulose) (HPC).
Setting [16] is: dose: 6.25 mg/kg/injection, schedule: Q01DX009 (ip), vehicle: Klucel (hydroxypropylcellulose) (HPC).

Turning to `NC1CC[N-]CC1.NC1CC[N-]CC1.[Cl][Pt+2]([Cl])([Cl])[Cl]`, the T/C was 109 % of control (dose: 3.12 mg/kg/injection, schedule: Q01DX009 (ip), vehicle: saline); 100 % of control and 118 % of control (dose: 6.25 mg/kg/injection, schedule: Q01DX009 (ip), vehicle: saline); 108 % of control under setting [1]; 120 % of control under setting [2]; 111 % of control under setting [3].
As for `CCSC1(SCC)C(=O)OC2=C(CCCC2)C1N(C)C` (centres undefined), the T/C runs as follows: under setting [4], 90 % of control; under setting [5], 103 % of control; (dose: 200.0 mg/kg/injection, schedule: Q01DX009 (ip), vehicle: saline with Tween-80) 105 % of control.
For the molecule `O=C1NCCN1c1ccccn1`, the T/C is 100 % of control under setting [6], 90 % of control under setting [7] and 95 % of control under setting [8].
Consider `CCCCC(CC)COC(=O)CCC(CCC(=O)OCC(CC)CCCC)C(=O)OCC(CC)CCCC` (centres undefined), for which the T/C under setting [9] is 90 % of control; the T/C under setting [10] is 118 % of control; the T/C (dose: 400.0 mg/kg/injection, schedule: Q04DX003 (ip), vehicle: saline with Tween-80) was 95 % of control.
`CN(C)[C@@H]1C(=O)C(C(N)=O)=C(O)[C@@]2(O)C(=O)C3=C(O)c4c(O)cccc4C[C@H]3C[C@@H]12`: the T/C is 100 % of control (dose: 3.75 mg/kg/injection, schedule: Q01DX010 (ip), vehicle: water); 120 % of control (dose: 7.5 mg/kg/injection, schedule: Q01DX010 (ip), vehicle: saline); 118 % of control (dose: 7.5 mg/kg/injection, schedule: Q01DX010 (ip), vehicle: water); 120 % of control (dose: 15.0 mg/kg/injection, schedule: Q01DX010 (ip), vehicle: saline); 109 % of control (dose: 20.0 mg/kg/injection, schedule: Q01DX010 (oral), vehicle: water); 100 % of control (dose: 35.0 mg/kg/injection, schedule: Q01DX010 (oral), vehicle: water). For the same molecule, the T/C (dose: 50.0 mg/kg/injection, schedule: Q01DX010 (oral), vehicle: water) is 100 % of control; the T/C (dose: 60.0 mg/kg/injection, schedule: Q01DX010 (ip), vehicle: saline) is 100 % of control; the T/C (dose: 65.0 mg/kg/injection, schedule: Q01DX010 (oral), vehicle: water) is 109 % of control; the T/C (dose: 80.0 mg/kg/injection, schedule: Q01DX010 (oral), vehicle: water) is 90 % of control.
Consider `O=C1c2cccnc2C(=O)N1Cc1ccccc1`, for which the T/C runs as follows: (dose: 9.38 mg/kg/injection, schedule: Q01DX009 (ip), vehicle: saline with Tween-80) 109 % of control; (dose: 18.7 mg/kg/injection, schedule: Q01DX009 (ip), vehicle: saline with Tween-80) 95 % of control; (dose: 37.5 mg/kg/injection, schedule: Q01DX009 (ip), vehicle: saline with Tween-80) 100 % of control.
With `CCOC(=O)C[P+](c1ccccc1)(c1ccccc1)c1ccccc1`, the T/C reads like this: under setting [6], 102 % of control; under setting [7], 102 % of control; under setting [8], 96 % of control.
For the molecule `CC(=O)Nc1ccc([I+]c2ccc([N+](=O)[O-])cc2)cc1`, the T/C by setting is: under setting [11], 99 % of control; under setting [12], 101 % of control; under setting [13], 119 % of control; (dose: 75.0 mg/kg/injection, schedule: Q01DX009 (ip), vehicle: saline with Tween-80) 116 % of control; (dose: 100.0 mg/kg/injection, schedule: Q01DX009 (ip), vehicle: Klucel (hydroxypropylcellulose) (HPC)) 118 % of control; under setting [5], 115 % of control.
With `CC(C)(C)OC(=O)NCC(=O)NC(Cc1c[nH]c2ccccc12)C(=O)O` (centres undefined), the T/C by setting is: (dose: 50.0 mg/kg/injection, schedule: Q01DX005 (ip), vehicle: saline with Tween-80) 102 % of control; (dose: 100.0 mg/kg/injection, schedule: Q01DX005 (ip), vehicle: saline with Tween-80) 95 % of control; (dose: 200.0 mg/kg/injection, schedule: Q01DX005 (ip), vehicle: saline with Tween-80) 95 % of control.
Take `O=C(NNc1ccc(F)cc1)C12CC3CC(CC(C3)C1)C2`: the T/C under setting [4] is 104 % of control.
As to `c1cnc2sccc2c1`, the T/C under setting [9] was 100 % of control and the T/C under setting [10] was 109 % of control.
For the molecule `Nc1nc(-c2ccccc2N=NN2CCN(N=Nc3ccccc3-c3nc(N)c4ccccc4n3)CC2)nc2ccccc12`, the T/C was 100 % of control (dose: 0.78 mg/kg/injection, schedule: Q01DX009 (ip), vehicle: Klucel (hydroxypropylcellulose) (HPC)); 102 % of control under setting [14]; 111 % of control under setting [15]; 107 % of control and 110 % of control under setting [16]; 102 % of control under setting [11]; 108 % of control under setting [12]. For the same molecule, where the note is “dose: 50.0 mg/kg/injection, schedule: Q01DX009 (ip), vehicle: Klucel (hydroxypropylcellulose) (HPC)”, the T/C was 105 % of control.
On to `O=C(Nc1ccccc1)Oc1cccc(/C=N/Sc2ccccc2)c1`, for which the T/C (dose: 12.5 mg/kg/injection, schedule: Q01DX009 (ip), vehicle: saline with Tween-80) is 107 % of control; the T/C under setting [13] is 100 % of control; the T/C under setting [4] is 91 % of control.
For `Nc1ccc2nc3ccccc3c(NCCCCCCCCNc3c4ccccc4nc4ccc(N)cc34)c2c1`, the T/C reads like this: (dose: 2.5 mg/kg/injection, schedule: Q01DX009 (ip), vehicle: water) 154 % of control; (dose: 10.0 mg/kg/injection, schedule: Q01DX009 (ip), vehicle: water) 165 % of control.
As for `O=C(O)CCCCCCc1ccc2ccccc2n1`, the T/C runs as follows: (dose: 50.0 mg/kg/injection, schedule: Q01DX009 (ip), vehicle: other) 105 % of control; (dose: 100.0 mg/kg/injection, schedule: Q01DX009 (ip), vehicle: other) 117 % of control; (dose: 200.0 mg/kg/injection, schedule: Q01DX009 (ip), vehicle: other) 114 % of control.
`Cc1cc(C)nc(NS(=O)(=O)c2ccc(N=Nc3nc4[nH]c(N)nc(=S)c4[nH]3)cc2)n1`: the T/C is, setting by setting: under setting [14], 113 % of control; under setting [15], 117 % of control; under setting [16], 112 % of control and 113 % of control; (dose: 50.0 mg/kg/injection, schedule: Q04DX003 (ip), vehicle: Klucel (hydroxypropylcellulose) (HPC)) 116 % of control; (dose: 100.0 mg/kg/injection, schedule: Q04DX003 (ip), vehicle: Klucel (hydroxypropylcellulose) (HPC)) 108 % of control; (dose: 200.0 mg/kg/injection, schedule: Q04DX003 (ip), vehicle: Klucel (hydroxypropylcellulose) (HPC)) 104 % of control.
Take `CCCCCCCCCCCCCC[N+]1([O-])CCCC1`: the T/C is, setting by setting: under setting [1], 108 % of control; under setting [2], 100 % of control; under setting [3], 95 % of control.
Regarding `CC[C@@]1(O)C[C@H](OC2CC(N(C)C)C(O)C(C)O2)c2c(cc3c(c2O)C(=O)c2c(O)ccc(O)c2C3=O)[C@H]1C(=O)OC` (some centres undefined), the T/C (dose: 20.0 mg/kg/injection, schedule: Q04DX003 (ip), vehicle: other) is 157 % of control.
Consider `COc1cccc(N2C(N)=NC(N)=NC2(C)C)c1`, for which the T/C is 108 % of control (dose: 9.37 mg/kg/injection, schedule: Q01DX009 (ip), vehicle: Klucel (hydroxypropylcellulose) (HPC)) and 93 % of control (dose: 18.75 mg/kg/injection, schedule: Q01DX009 (ip), vehicle: Klucel (hydroxypropylcellulose) (HPC)).
